# Test system: mRNA expression in cardiovascular tissues
# Experiment: Affymetrix GeneChip mRNA expression profiling of monkey tissues (iliac vein, pulmonary vein, aorta, carotid artery, heart) after two-week oral-gavage treatment
# Conditions: iliac vein; group avg, Vioxx without A60055
# Method: Administration of compounds. A two-week oral-gavage treatment with the Cox-2 specific inhibitor COX189 (Lumiracoxib®, Novartis) in comparison with rofecoxib (Vioxx®, Merck), and celecoxib (Celebrex®, Pharmacia/Pfizer), and with the nonselective NSAID, diclofenac (Voltaren®, Novartis) was performed. […] The test items were administered daily at doses of 100 mg/kg/day, except Vioxx® which was administered at 50 mg/kg/day.
# Gene expression profiles. After a period of time (e.g., four weeks) of compound/drug administration, the treated animals are necropsied. 120 tissues are dissected and rapidly snap-frozen for genomics analysis. Organ samples are isolated for histopathological examinations and for gene expression localizations, such as by in situ hybridization.
# Gene expression profiles have been generated using the Affymetrix microarray technology. (i) RNA extraction and purification: Briefly, total RNA was obtained by acid guanidinium thiocyanate-phenol-chloroform extraction (Trizol®, Invitrogen Life Technologies, San Diego, Calif.) from each frozen tissue section and the total RNA was then purified on an affinity resin (Rneasy®, Qiagen) according to the manufacturer's instructions. Total RNA was quantified by the absorbance at λ=260 nm (A260 nm) and the purity was estimated by the ratio A260 nm/A280 nm. Integrity of the RNA molecules was confirmed by non-denaturing agarose gel electrophoresis. RNA was stored at −80° C. until analysis. […] (ii) GeneChip® experiment: All GeneChip® experiments were conducted in the Genomics Factory EU following recommendations by the manufacturer of the GeneChip® system (Affymetrix, Expression Analysis Technical Manual (Affymetrix, Santa Clara, Calif., 2005). Human U133A genome arrays were used for transcript expression analysis. Double stranded cDNA was synthesized with a starting amount of approximately 5 μg full-length total RNA using the Superscript Choice System (Invitrogen Life Technologies) in the presence of a T7-(dT) 24 DNA oligonucleotide primer. Following synthesis, the cDNA was purified by phenol/chloroform/isoamyl alcohol extraction and ethanol precipitation. The purified cDNA was then transcribed in vitro using the BioArray® High Yield RNA Transcript Labeling Kit (ENZO) in the presence of biotinylated ribonucleotides form biotin labelled cRNA. The labelled cRNA was then purified on an affinity resin (Rneasy, Qiagen), quantified and fragmented. An amount of approximately 10 μg labelled cRNA was hybridized for approximately 16 hours at 45° C. to an expression probe array. The array was then washed and stained twice with streptavidin-phycoerythrin (Molecular Probes) using the GeneChip Fluidics Workstation 400 (Affymetrix). The array was then scanned twice using a confocal laser scanner (GeneArray Scanner®, Agilent) resulting in one scanned image. This resulting “.dat-file” was processed using the MASS program (Affymetrix) into a “.cel-file”. The “.cel file” was then transferred to tan Affymetrix GeneChip Laboratory Information Management System (LIMS) database, which is connected to a UNIX Sun Solaris server through a network filing system that allows for the average intensities for all probes cells (CEL file) to be downloaded into an Oracle database (NPGN). Raw data was converted to expression levels using a “target intensity” of 100. […] The data were checked for quality and loaded in the GeneSpring® software versions 5.0 (Silicon Genetics, Calif., US) for statistical analysis.
# Quality control analysis of transcriptome data: The following quality measures were analysed for each sample: Scaling factor, background, percent present calls, AFFX-GAPDH 3′: AFFX-GAPDH 5′-ratio, AFFX-GAPDH 3′ variance, AFFX-Beta-actin 3′: AFFX-Beta-actin 5′-ratio.
compound,measurement,value
O=C(O)Cc1ccccc1Nc1c(Cl)cccc1Cl [Voltaren],HFE (211329_x_at) avg fold change vs control,0.9 fold
same,HFE (211332_x_at) avg fold change vs control,0.9 fold
same,HFE (211863_x_at) avg fold change vs control,1.0 fold
same,HFE (211866_x_at) avg fold change vs control,0.9 fold
same,HHL (203020_at) avg fold change vs control,0.8 fold
same,HLA-A (211528_x_at) avg fold change vs control,1.1 fold
same,HLA-A (211529_x_at) avg fold change vs control,1.2 fold
same,HLA-A (211530_x_at) avg fold change vs control,1.6 fold
same,HLA-A (215313_x_at) avg fold change vs control,1.3 fold
same,HLA-B (208729_x_at) avg fold change vs control,1.2 fold
same,HLA-B (209140_x_at) avg fold change vs control,1.2 fold
same,HLA-B (211911_x_at) avg fold change vs control,1.2 fold
same,HLA-C (208812_x_at) avg fold change vs control,1.2 fold
same,HLA-C (214459_x_at) avg fold change vs control,1.3 fold
same,HLA-C (216526_x_at) avg fold change vs control,1.5 fold
same,HLA-DMA (217478_s_at) avg fold change vs control,1.3 fold
same,HLA-DMB (203932_at) avg fold change vs control,1.0 fold
same,HLA-DQA1 (212671_s_at) avg fold change vs control,1.2 fold
same,HLA-DQB1 (209823_x_at) avg fold change vs control,1.3 fold
same,HLA-DQB1 (211654_x_at) avg fold change vs control,1.6 fold
same,HLA-DQB1 (211656_x_at) avg fold change vs control,1.2 fold
same,HLA-DQB2 (212998_x_at) avg fold change vs control,2.2 fold
same,HLA-DRA (208894_at) avg fold change vs control,1.1 fold
same,HLA-DRA (210982_s_at) avg fold change vs control,1.0 fold
same,HLA-DRB1 (215193_x_at) avg fold change vs control,1.3 fold
same,HLA-DRB3 (209312_x_at) avg fold change vs control,1.1 fold
same,HLA-DRB6 (217362_x_at) avg fold change vs control,1.0 fold
same,HLA-E (200905_x_at) avg fold change vs control,1.2 fold
same,HLA-E (217456_x_at) avg fold change vs control,1.2 fold
same,HLA-F (204806_x_at) avg fold change vs control,1.0 fold
same,HLA-F (221875_x_at) avg fold change vs control,1.0 fold
same,ICAM1 (202638_s_at) avg fold change vs control,1.5 fold
same,ICAM1 (215485_s_at) avg fold change vs control,1.1 fold
same,ICSBP1 (204057_at) avg fold change vs control,1.1 fold
same,IFI27 (202411_at) avg fold change vs control,5.6 fold
same,IFI30 (201422_at) avg fold change vs control,1.4 fold
same,IFI44 (214453_s_at) avg fold change vs control,1.7 fold
same,IFIT1 (203153_at) avg fold change vs control,1.0 fold
same,IFIT2 (217502_at) avg fold change vs control,0.8 fold
same,IFIT4 (204747_at) avg fold change vs control,0.9 fold
same,IFITM2 (201315_x_at) avg fold change vs control,1.6 fold
same,IFITM3 (212203_x_at) avg fold change vs control,1.3 fold
same,IGF1 (209541_at) avg fold change vs control,1.2 fold
same,IGFBP4 (201508_at) avg fold change vs control,0.8 fold
same,IL1A (208200_at) avg fold change vs control,1.2 fold
same,IL2RG (204116_at) avg fold change vs control,1.2 fold
same,IL27RA (205926_at) avg fold change vs control,1.3 fold
same,INDO (210029_at) avg fold change vs control,1.4 fold
same,INPP5D (203332_s_at) avg fold change vs control,1.2 fold
same,IRF1 (202531_at) avg fold change vs control,1.1 fold
same,IRF7 (208436_s_at) avg fold change vs control,1.2 fold
same,ISGF3G (203882_at) avg fold change vs control,1.4 fold
same,ITGB2 (202803_s_at) avg fold change vs control,1.0 fold
same,JAK1 (214377_s_at) avg fold change vs control,1.1 fold
same,KLKB1 (206541_at) avg fold change vs control,1.2 fold
same,LAIR1 (208071_s_at) avg fold change vs control,0.8 fold
same,LCK (204890_s_at) avg fold change vs control,0.9 fold
same,LCP2 (205270_s_at) avg fold change vs control,1.2 fold
same,LILRB1 (207857_at) avg fold change vs control,0.8 fold
same,LILRB1 (211100_x_at) avg fold change vs control,1.2 fold
same,LILRB3 (208594_x_at) avg fold change vs control,1.4 fold
same,LILRB3 (210225_x_at) avg fold change vs control,1.3 fold
same,LRMP (204674_at) avg fold change vs control,1.6 fold
same,LY86 (205859_at) avg fold change vs control,1.2 fold
same,LY96 (206584_at) avg fold change vs control,1.4 fold
same,LYN (210754_s_at) avg fold change vs control,1.1 fold
same,MAF (209348_s_at) avg fold change vs control,0.9 fold
same,PCOLCE (202465_at) avg fold change vs control,0.3 fold
same,PLA2G4C (209785_s_at) avg fold change vs control,1.0 fold
same,PLCL2 (216217_at) avg fold change vs control,1.0 fold
same,PLSCR1 (202446_s_at) avg fold change vs control,1.5 fold
same,PRC1 (218009_s_at) avg fold change vs control,0.8 fold
same,PRG1 (201858_s_at) avg fold change vs control,1.1 fold
same,PRG1 (201859_at) avg fold change vs control,1.2 fold
same,PTPN22 (206060_s_at) avg fold change vs control,0.9 fold
same,PTPRC (207238_s_at) avg fold change vs control,1.3 fold
same,SOCS3 (206360_s_at) avg fold change vs control,1.4 fold
same,STAT1 (209969_s_at) avg fold change vs control,2.3 fold
same,STAT1 (AFFX-HUMISGF3A/M97935_5_at) avg fold change vs control,1.0 fold
same,STAT1 (AFFX-HUMISGF3A/M97935_MA_at) avg fold change vs control,1.0 fold
same,STAT1 (AFFX-HUMISGF3A/M97935_MB_at) avg fold change vs control,1.1 fold
same,TAPBP (208829_at) avg fold change vs control,1.0 fold
same,TCTEL1 (201999_s_at) avg fold change vs control,0.9 fold
same,TLR1 (210176_at) avg fold change vs control,1.3 fold
same,TLR2 (204924_at) avg fold change vs control,1.4 fold
same,TNFAIP3 (202643_s_at) avg fold change vs control,1.3 fold
same,TNFAIP3 (202644_s_at) avg fold change vs control,1.7 fold
same,TNFSF6 (210865_at) avg fold change vs control,1.2 fold
same,TNFSF10 (202687_s_at) avg fold change vs control,1.2 fold
same,TNFSF10 (202688_at) avg fold change vs control,1.1 fold
same,TRGC2 (211144_x_at) avg fold change vs control,1.0 fold
same,TRGC2 (216920_s_at) avg fold change vs control,1.2 fold
same,VCAM1 (203868_s_at) avg fold change vs control,1.4 fold
same,XCL1 (206366_x_at) avg fold change vs control,1.8 fold
same,XCL1 (214567_s_at) avg fold change vs control,0.5 fold
same,XLKD1 (219059_s_at) avg fold change vs control,1.4 fold
same,cig5 (213797_at) avg fold change vs control,2.1 fold

# Source: patent publication US9738932B2, “Biomarkers for cardiovascular side-effects induced by cox-2 inhibitory compounds” (FIRALIS SAS, priority 2005, dated 2017)
